Assay results published in article PMC10674160, “Synthesis and Preclinical Evaluation of Radiolabeled [^103Ru]BOLD-100” (Pharmaceutics, 2023).

What was measured:
HCT116 cells = assay: MTT cytotoxicity assay, 96 h exposure; assay type: cell-based, human; conditions: exposure time 96 h, mean ± SD
Description: The murine cancer cell line CT26 and the human cancer cell line HCT116 were both obtained from the American Type Culture Collection (ATCC). Both cell lines were grown as adherent monolayer cultures in 75 cm^2 culture flasks in RPMI 1640 medium (supplemented with 2 mM L-glutamine and 1% PenStrep, Gibco^TM) and 10% fetal bovine serum (FBS, Gibco^TM) at 37 °C under a humid atmosphere containing 5% CO2 and 95% air. For splitting, accutase® solution (Sigma Aldrich) was used.
Cell viability was determined by the colorimetric MTT assay. The cells were seeded in RPMI 1640 medium in a 96-well cell culture plate 24 h prior to treatment at a density of 1.5 × 10^3 (CT26) and 2 × 10^3 (HCT116) cells per well. A stock solution of compounds 3a and 3b was prepared in DMSO and then diluted with RPMI 1640 medium (maximum 0.5% v/v of DMSO per well). After serial dilutions, a 100 µL aliquot was added to each well ([…], 6.25, 3.13 µmol/L per well). […] Optical densities were measured at 490 nm with a Synergy^TM HTX Multi-Mode Reader (BioTek, Winooski, VT, USA), using a reference wavelength of 650 nm to correct for unspecific absorption. Concentration–effect curves were calculated relative to untreated controls. […]

[1] = parameters: method as in PMID 28848672; conditions: phase I clinical study; cited from earlier work

| SMILES | IC50 (HCT116 cells) [µM] | maximum tolerated dose [1] [mg/m^2] |
| --- | --- | --- |
| [Cl][Ru-]([Cl])([Cl])[Cl].[Na+].c1ccc2[nH]ncc2c1.c1ccc2[nH]ncc2c1 [3a, sodium trans-[tetrachloridobis(indazole)ruthenate(III)]] | 99.4 ± 14.5 | 625 |
| [Cl][Ru]([Cl])([Cl])[Cl].[Na+].c1ccc2[nH]ncc2c1.c1ccc2[nH]ncc2c1 [3b, [^103Ru]sodium trans-[tetrachloridobis(indazole)ruthenate(III)]] | 94.7 ± 11.7 |  |
